Assay results published in US20250129050A1, “SYNTHESIS OF A KIF18A INHIBITOR” (Amgen Inc., priority 2022, published 2025).
Entries after “also recorded” stand apart in the source; their conditions may differ.

Test: Dynamic Vapor Sorption (DVS) moisture sorption with pre and post DVS XRPD
Format: physicochemical
Details: after exposure to 80% relative humidity at 25° C. for 24 hours; hydrate
Protocol: Moisture sorption data were collected using a DVS Endeavour. A sample size of about 30 mg was used. The temperature was 25° C. The relative humidity (RH) was held to 80% for 24 hours. Mass was recorded at the beginning and end of the experiment. Stability and Hygroscopicity Features of Crystalline Compound 6a-I as shown by Pre and Post DVS XRPD Experiment: Crystalline Compound 6a-I was exposed to 80% relative humidity at 25° C. for 24 hours using a DVS Endeavor instrument. The mass was recorded at the beginning and end of the exposure. […] Dynamic Vapor Sorption (DVS): The crystalline Compound 6a-I can be characterized by a DVS moisture sorption profile.

## O=S(CCOCc1ccccc1)[O][Ca][O]S(=O)CCOCc1ccccc1 (stereo not shown) [Compound 6a-I, calcium 2-(benzyloxy)ethane-1-sulfinate 4/3 hydrate]
  crystalline form stability (XRPD pre DVS vs post DVS): no crystalline form change; also recorded: stable crystalline polymorph form
